Measured values published in patent publication US8496928B2, “Method for preventing and treating cardiovascular diseases with BRCA1” (priority 2008, dated 2013).

Assays:
[1] = system: rat neonatal ventricular cardiomyocytes (NRVMs); experiment: Cardiomyocyte apoptosis, AnnexinV-FITC/PI flow cytometry and cleaved caspase-3 western blot; type: cell-based
Method: In FIG. 5A apoptosis in control, BRCA1-overexpressing, doxorubicin-treated and doxorubicin-treated-BRCA1-overexpressing neonatal rat ventricular cardiomyocytes (NRVCM) was assessed by Annexin V-FITC and propidium iodide staining coupled with flow cytometry. Quadrants S1, S2, S3 and S4 respectively represent necrotic, late apoptotic, viable live and early apoptotic NRVCM. FIG. 5B is a representative western blot of cleaved caspase-3 and α-actin proteins in NRVCM infected with either 10 MOI Ad-hBRCA1 or Ad-null vector for 48 hours before being exposed to 2 μM doxorubicin for 24 hours. Data are expressed as mean±SD. n=3. *P<0.05 vs untreated control group. †P<0.01 vs doxorubicin group.
The effect of pifithrin-α on doxorubicin-induced cardiomyocyte apoptosis, with or without overexpression of BRCA1 was examined. […]
BRCA-1 induced gain of function and protection against genotoxic and oxidative stress-induced apoptosis was also examined in vitro. […] Cardiomyocytes were incubated with the virus (human BRCA1 or GFP) for 48 hours after which expression of human BRCA1 or GFP were determined. Expression of BRCA1 was analyzed by real-time PCR and western blotting (see FIGS. 4A and 4B) and expression of GFP was analyzed by live cell video microscopy. […] Based on this observation, 10 MOI was determined to be the best of the three tested concentrations of the adenoviral construct. […]

HUVECs = experiment: HUVEC apoptosis assays (Annexin V-FITC/PI flow cytometry, cleaved caspase-3, DNA fragmentation); type: cell-based, human; settings: ad-null infected HUVECs, 2 μM doxorubicin 24 hours
Method: In FIG. 23A ad-null or ad-BRCA1 infected HUVECs were treated with TNFα (20 ng/ml) for 24 hours. Cells were harvested for Annexin V-FITC and Propidium Iodide staining followed by flow cytometry. Total apoptotic cells are shown as mean±SD (n=3 in triplicate, **p<0.01). In FIG. 23B, HUVECs were treated with either siBRCA1 (10 nM) or scrambled siRNA (10 nM) for 24 hours. BRCA1-silenced and control HUVECs were treated with TNFα (20 ng/ml), stained with Annexin V-FITC and Propidium Iodide, and analyzed by flow cytometry. The percentage of total apoptotic cells are presented as mean±SD (n=3 in triplicate, **p<0.01). […] Data was calculated as the percentage of total apoptotic cells and presented as mean±SD (n=3 in triplicate, **p<0.01).
FIG. 31 is a bar graph showing protection of HUVECs against doxorubicin-induced apoptosis by BRCA1 overexpression. […] Data was calculated as the percentage of total apoptotic cells and presented as mean±SD (n=3 in triplicate, *p<0.01 vs. Ad-null group, †p<0.01 vs. Ad-null+2 μM Dox group). […]
Human umbilical vein endothelial cells (HUVECs) were purchased from Cambrex and cultured in MCDB-131 complete medium (Cambrex Corporation). […] These concentrations were determined from pilot optimization studies. […]
Apoptotic and necrotic cell death were assessed in ad-BRCA1 and ad-null infected HUVECs by flow cytometry coupled with the BD Annexin V-FITC Apoptosis Detection Kit. […]

Wild-type mice = experiment: Doxorubicin-induced cardiac dysfunction in mice, echocardiography; settings: doxorubicin 10 mg/kg i.p.; echocardiography day 3 and day 7
Method: Left ventricular function was assessed by echocardiography measuring percent systolic ejection fraction 3 days (FIG. 3A) or 7 days (FIG. 3B) after administration of vehicle, Ad-null vector (40 μl of 10^10 PFU, i.v.), Ad-GFP (40 μl of 10^10 PFU, i.v.), doxorubicin (10 mg/kg, i.p.) or doxorubicin (10 mg/kg, i.p.) with Ad-hBRCA1 (40 μl of 10^10 PFU, i.v.). Left ventricular function was also assessed by measuring fractional shortening values 3 days (FIG. 3C) after administration of vehicle, Ad-null vector (40 μl of 10^10 PFU, i.v.), Ad-GFP (40 μl of 10^10 PFU, i.v.), doxorubicin (10 mg/kg, i.p.) or doxorubicin (10 mg/kg, i.p.) with Ad-hBRCA1 (40 μl of 10^10 PFU, i.v.). *P<0.01 vs corresponding PBS group. †P<0.01 vs corresponding doxorubicin group. # p<0.01 vs. PBS+ad-GFP, ## p<0.001 vs. Dox+ad-BRCA1. n=3 for PBS and GFP groups; n=7 for doxorubicin and doxorubicin-BRCA1 groups. […]
Double-blinded echocardiography was performed on the doxorubicin- and adenoviral vectors-treated mice 3 days and 7 days post-treatment. […] End-diastolic posterior LV wall thickness, LV end-diastolic (LVEDD) and end-systolic LV dimension (LVESD) were measured. During diastole, LV dimension and wall thickness were measured from the maximum chamber cavity; during systole, they were measured during maximum anterior motion of the posterior wall. […]

p53 = experiment: Western blot for p53 and phospho-p53 in cultured cardiomyocytes; type: cell-based, rat; settings: NRVMs
Method: GAPDH was used as loading control. Phospho-p53 antibodies were directed against serine 15 of p53 protein.
Cardiomyocytes were infected with 10MOI of a replication deficient adenoviral vector containing the CMV promoter and either human BRCA1 or a null vector (human Adenovirus Type5 dE1/E3, Vector Biolabs, USA). Following 48 hours incubation, cardiomyocytes were treated with 21 μM of doxorubicin or 50 μM of H2O2. The inhibitor of p53, pifithrin-α (10 μm, Sigma Aldrich, USA) was added 2 hrs prior to the addition of doxorubicin or hydrogen peroxide. After 24 hours, cardiomyocytes were either trypsinized and collected for flow cytometry or harvested for protein and RNA extraction.

[2] = system: BRCA1 and p53 interaction; experiment: Co-immunoprecipitation of BRCA1 and p53 in cardiomyocytes; type: cell-based, rat; settings: agent alone
Method: BRCA1 physically interacts with p53 in order to regulate p53 activity in a context dependent manner. Proteins were extracted after treatment and equal amounts (100 μg) of lysates were resolved by SDS PAGE.
Experiments were performed to access the interaction of BRCA1 with p53 in cardiomyocytes. […] Additionally, doxorubicin treatment, in the presence of overexpressing BRCA1 strengthened this association (lane 4, FIG. 6).
For analysis of physical interaction between BRCA1 and p53, cardiomyocytes were maintained and treated in 6-cm culture-dishes. After adenoviral and/or stress treatments, cells were scraped and suspended in 100 μL of RIPA buffer. The total cell lysate was obtained after homogenization and centrifugation at 14,000 g for 30 minutes at 4° C. Protein concentration was determined by the Bradford assay. Aliquots of each fraction (100 μg protein for total cell lysate) were incubated with either 0.5 μg of anti-p53 mouse monoclonal antibody (Cell Signaling Technology, USA) or with 0.5 μg of anti-BRCA1 (Santa Cruz Biotechnology, USA) for 1 hour at 4° C. Addition of protein A-Sepharose (Santa Cruz Biotechnology) and incubation for 16 hours at 4° C. was followed by centrifugation and repetitive washing of the Sepharose beads. […]

Structure (SMILES)	number of apoptotic cardiomyocytes ([1]; BRCA1-overexpressing cardiomyocytes treated with doxorubicin and PFT-α)	number of apoptotic cells ([1]; cardiomyocytes treated with doxorubicin, PFT-α 10 μm added 2 hrs prior, vs doxorubicin only)	apoptosis (HUVECs)	cardiac function (percent systolic ejection fraction, fractional shortening) (Wild-type mice)	p53 level (p53; agent on its own)	serine-15 phosphorylation of p53 (p53; doxorubicin alone)	BRCA1 and p53 association [2]
Cc1ccc(C(=O)Cn2c3c(sc2=N)CCCC3)cc1 [PFT-α, pifithrin-α]	no further reduction	significant reductions					
COc1cccc2c1C(=O)c1c(O)c3c(c(O)c1C2=O)C[C@@](O)(C(=O)CO)C[C@@H]3O[C@H]1C[C@H](N)[C@H](O)[C@H](C)O1 [doxorubicin]			prevalent	impairment in cardiac function	upregulated p53	activated	decline
